Assay results reported in paper PMC7044277 (Nature Communications, 2020).
“And” between values parts separate entries of the source, which are not always exact repeats. Equal values may be shown once.

What was measured:
DRD3 wild-type = DRD3 wild-type (Homo sapiens, UniProt P35462); assay: Radioligand competition binding, [3H]-N-methylspiperone
[1] = biological target: DRD2 (D2 long receptor) wild-type (Homo sapiens, UniProt P14416); assay: Radioligand competition binding, [3H]-N-methylspiperone, HEK293T membranes
Sequence of DRD2 (D2 long receptor) wild-type (P14416 whole entry): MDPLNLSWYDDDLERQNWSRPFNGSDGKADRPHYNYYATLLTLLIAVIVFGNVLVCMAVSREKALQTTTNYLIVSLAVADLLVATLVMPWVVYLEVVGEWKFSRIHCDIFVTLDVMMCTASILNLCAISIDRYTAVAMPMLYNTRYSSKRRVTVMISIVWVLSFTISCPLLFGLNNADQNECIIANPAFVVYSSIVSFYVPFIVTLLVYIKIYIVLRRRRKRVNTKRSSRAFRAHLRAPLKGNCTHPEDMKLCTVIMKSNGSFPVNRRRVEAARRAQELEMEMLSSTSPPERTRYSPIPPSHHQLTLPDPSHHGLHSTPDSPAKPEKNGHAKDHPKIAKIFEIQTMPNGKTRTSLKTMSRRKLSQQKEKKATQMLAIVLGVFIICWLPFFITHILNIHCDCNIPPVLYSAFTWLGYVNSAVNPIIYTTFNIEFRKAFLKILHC

DRD2 (D2 long receptor) [2] = biological target: T1, DRD2 (D2 long receptor) (Homo sapiens, UniProt P14416); assay: β-arrestin2 recruitment (Tango), HTLA cells; assay type: cell-based; conditions: for Response, Fig_S11c dose-response: individual replicates
T1 sequence (P14416 whole entry): as above

DRD2 F1103.28A = DRD2 F1103.28A (Homo sapiens, UniProt P14416, F110A); assay type: binding; parameters: expressed in transfected cells; host or cells: HEK293T (ATCC CRL-11268); conditions: DRD2 F1103.28A
Sequence of DRD2 F1103.28A (P14416 whole entry F110A): as the sequence (P14416 whole entry) above, with F110A counted along it

DRD3 = DRD3 (Homo sapiens, UniProt P35462); assay: β-arrestin2 recruitment (Tango); assay type: cell-based; conditions: DRD3, Tango
Sequence of DRD3 (P35462 whole entry): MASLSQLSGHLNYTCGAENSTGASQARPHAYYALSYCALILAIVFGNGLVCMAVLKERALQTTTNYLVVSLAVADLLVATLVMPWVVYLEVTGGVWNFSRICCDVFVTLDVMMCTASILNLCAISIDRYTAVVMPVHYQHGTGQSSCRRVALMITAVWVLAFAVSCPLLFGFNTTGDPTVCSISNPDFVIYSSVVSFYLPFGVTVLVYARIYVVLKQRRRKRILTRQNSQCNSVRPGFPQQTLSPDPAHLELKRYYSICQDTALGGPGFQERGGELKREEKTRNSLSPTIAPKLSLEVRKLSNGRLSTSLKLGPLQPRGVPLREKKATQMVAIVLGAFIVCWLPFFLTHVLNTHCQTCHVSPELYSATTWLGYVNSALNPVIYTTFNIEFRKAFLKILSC

[3] = biological target: T2, DRD4 (D4.4 variant) wild-type (Homo sapiens, UniProt P21917); assay: Radioligand competition binding, [3H]-N-methylspiperone; conditions: DRD4; [3H]-methylspiperone (0.8-1.0 nM); read-out: Ki
T2 sequence (P21917 1-419): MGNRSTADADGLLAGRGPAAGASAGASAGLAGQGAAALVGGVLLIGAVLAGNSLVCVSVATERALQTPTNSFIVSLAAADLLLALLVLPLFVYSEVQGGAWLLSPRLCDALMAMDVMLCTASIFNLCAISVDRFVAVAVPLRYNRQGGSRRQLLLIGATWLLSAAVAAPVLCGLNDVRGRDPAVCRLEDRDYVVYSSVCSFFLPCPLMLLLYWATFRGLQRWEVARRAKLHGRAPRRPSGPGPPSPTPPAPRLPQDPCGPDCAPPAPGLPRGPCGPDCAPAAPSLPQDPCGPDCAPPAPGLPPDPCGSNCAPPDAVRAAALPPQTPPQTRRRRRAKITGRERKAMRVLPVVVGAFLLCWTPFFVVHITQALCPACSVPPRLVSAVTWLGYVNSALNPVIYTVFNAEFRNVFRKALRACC

DRD2 (D2 long receptor) [4] = biological target: T1, DRD2 (D2 long receptor); assay: Gαi/o-mediated cAMP inhibition (GloSensor split-luciferase cAMP reporter), HEK293T; assay type: cell-based; conditions: for Response, Fig_S11b dose-response: individual replicates;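 as to all read-outs here: compounds applied 15 min at room temperature, then luciferin plus 400 nM isoproterenol to raise cAMP through endogenous β2-adrenergic receptors, luminescence read 15 min later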
DRD4 (D4.4 variant) [5] = biological target: T3, DRD4 (D4.4 variant) (Homo sapiens, UniProt P21917); assay: β-arrestin2 recruitment (Tango); assay type: cell-based; conditions: DRD4; Tango; read-out: EC50 ± SEM
T3 sequence (P21917 1-419): T2 sequence (P21917 1-419)

DRD4 (D4.4 variant) [6] = biological target: T3, DRD4 (D4.4 variant); assay: Gαi/o-mediated cAMP inhibition (GloSensor); assay type: cell-based; conditions: DRD4; agonist, cAMP inhibition; read-out: EC50 ± SEM

Sequence of DRD3 wild-type (P35462 whole entry): as the sequence (P35462 whole entry) above

- Ki (DRD3 wild-type; DRD3, [3H]-methylspiperone (0.8-1.0 nM), read-out: Ki): 1.07 µM
- pKi ± SEM (DRD3 wild-type; DRD3 wild-type): 5.97±0.13
- Ki ([1]; DRD2, [3H]-methylspiperone (0.8-1.0 nM), read-out: Ki): 4.78 µM
- pKi ± SEM ([1]; DRD2 wild-type): 5.32±0.22
- Emax relative to quinpirole response (DRD2 (D2 long receptor) [2]; DRD2, Tango): 109.80%
- EC50 (DRD2 (D2 long receptor) [2]; DRD2, β-arrestin2 recruitment (Tango), read-out: EC50 ± SEM): 0.166 ± 0.0764 µM
- Response, Fig_S11c dose-response (DRD2 (D2 long receptor) [2]; Log[Drug] -6.52): 92.1418 and 88.9307
- pKi ± SEM (DRD2 F1103.28A): 5.49±0.16
- Ki (DRD2 F1103.28A; read-out: Ki): 3.24 µM
- Emax relative to quinpirole response (DRD3): 80.01%
- EC50 (DRD3; read-out: EC50 ± SEM): 5.48 ± 3.94 µM
- Ki [3]: > 10 µM
- EC50 (DRD2 (D2 long receptor) [4]; DRD2, agonist, Gαi/o-mediated cAMP inhibition, read-out: EC50 ± SEM): 0.00538 ± 0.00115 µM
- Emax relative to quinpirole response (DRD2 (D2 long receptor) [4]; DRD2, cAMP inhibition): 91.62%
- Response, Fig_S11b dose-response (DRD2 (D2 long receptor) [4]; Log[Drug] -10.52): -0.1987 and -7.8123
- Response, Fig_S11b dose-response (DRD2 (D2 long receptor) [4]; Log[Drug] -11): 6.197 and 12.6784 and -7.6785 and 0.5663
- Response, Fig_S11b dose-response (DRD2 (D2 long receptor) [4]; Log[Drug] -11.52): -9.1412 and 3.4 and -7.0575 and 6.319
- EC50 (DRD4 (D4.4 variant) [5]): > 10 µM
- EC50 (DRD4 (D4.4 variant) [6]): > 10 µM
Structure (SMILES): COc1cccc2cc(C(C)NCC3(O)CCCCC3)oc12.Cl (centres unmarked) [O3LE6]
- response, Fig_S11c dose-response source data (DRD2 (D2 long receptor) [2]; Fig_S11c, Log[Drug] -5, replicate values): 121.198 and 127.001 and 100.932 and 110.321 and 113.709 and 113.34 and 97.1155
- Response, Fig_S11c dose-response (DRD2 (D2 long receptor) [2]; Log[Drug] -7): 77.394 and 77.7575 and 68.5542 and 65.6395 and 57.0787 and 60.1228 and 51.2599 and 46.3298
- Response, Fig_S11c dose-response (DRD2 (D2 long receptor) [2]; Log[Drug] -7.52): 38.329 and 41.6231 and 33.61 and 32.4962 and 32.299 and 34.1126 and 16.8232 and 31.0553 and 35.575
- Response, Fig_S11c dose-response (DRD2 (D2 long receptor) [2]; Log[Drug] -8): 11.9901 and 12.2692 and 10.2755 and 10.8849 and 10.4485 and 8.443 and 10.7171 and 9.707 and 5.469
- Response, Fig_S11c dose-response (DRD2 (D2 long receptor) [2]; Log[Drug] -8.52): 3.649 and 3.804 and 4.186 and 3.535 and 4.03 and 2.927 and 1.899 and 5.413 and 2.845
- Response, Fig_S11c dose-response (DRD2 (D2 long receptor) [2]; Log[Drug] -9): 2.6531 and 2.675 and 3.049 and 2.914 and 2.704 and 2.807 and 3.034 (2×) and 2.494
- Response, Fig_S11c dose-response (DRD2 (D2 long receptor) [2]; Log[Drug] -9.52): 2.467 and 2.869 and 2.678 and 2.37 and 2.33 and 2.2184 and 1.931 and 2.13 and 2.319
- Response, Fig_S11c dose-response (DRD2 (D2 long receptor) [2]; Log[Drug] -10): 2.843 and 2.654 and 2.976 and 2.168 and 2.347 and 2.222 and 3.804 and 1.194 and 2.499
- Response, Fig_S11c dose-response (DRD2 (D2 long receptor) [2]; Log[Drug] -10.52): 2.259 and 2.282 and 2.549 and 2.128 and 2.141 (2×) and 0.6309 and 3.246 and 2.4849
- Response, Fig_S11c dose-response (DRD2 (D2 long receptor) [2]; Log[Drug] -11): 2.232 and 3.428 and 2.336 and 2.237 and 2.197 and 2.087 and 5.0906 and 1.927 and 3.601
- Response, Fig_S11c dose-response (DRD2 (D2 long receptor) [2]; Log[Drug] -11.52): 2.2032 and 3.321 and 2.444 and 2.452 and 2.181 and 2.306 and 0.82 and 1.028 and 2.688
- Response, Fig_S11c dose-response (DRD2 (D2 long receptor) [2]; Log[Drug] -12): 2.5295 and 2.339 and 2.21 and 2.47 and 2.197 and 2.157 and 4.362 and 2.319 and 1.955
- Response, Fig_S11b dose-response (DRD2 (D2 long receptor) [4]; Log[Drug] -5): 91.2746 and 93.268 and 92.0221 and 94.9982 and 95.9757 and 91.0458 and 94.8288 and 96.7238 and 94.4943
- Response, Fig_S11b dose-response (DRD2 (D2 long receptor) [4]; Log[Drug] -5.52): 84.7131 and 82.1661 and 88.7829 and 90.1533 and 94.7432 and 84.076 and 96.9467 and 103.412 and 92.2649
- Response, Fig_S11b dose-response (DRD2 (D2 long receptor) [4]; Log[Drug] -6): 91.1916 and 89.8903 and 94.4031 and 97.8031 and 85.4785 and 88.6659 and 101.461 and 101.183 and 85.6322
- Response, Fig_S11b dose-response (DRD2 (D2 long receptor) [4]; Log[Drug] -6.52): 79.2314 and 90.7486 and 80.9756 and 96.6556 and 102.308 and 66.8216 and 90.3141 and 94.5501 and 81.1733
- Response, Fig_S11b dose-response (DRD2 (D2 long receptor) [4]; Log[Drug] -7): 93.1296 and 79.0099 and 76.7951 and 89.8559 and 81.4411 and 87.5184 and 97.0582 and 96.7796 and 87.8617
- Response, Fig_S11b dose-response (DRD2 (D2 long receptor) [4]; Log[Drug] -7.52): 73.6389 and 59.4361 and 66.496 and 84.9685 and 73.1539 and 73.1114 and 79.2783 and 81.1733 and 101.35
- Response, Fig_S11b dose-response (DRD2 (D2 long receptor) [4]; Log[Drug] -8): 62.703 and 59.1593 and 45.4826 and 64.1867 and 54.9645 and 52.4996 and 72.7571 and 85.8552 and 67.9638
- Response, Fig_S11b dose-response (DRD2 (D2 long receptor) [4]; Log[Drug] -8.52): 23.5556 and 18.5998 and 3.594 and 27.9779 and 38.8575 and 46.6347 and 39.4267 and 57.0952 and 34.8006
- Response, Fig_S11b dose-response (DRD2 (D2 long receptor) [4]; Log[Drug] -9): 24.2477 and 23.1957 and 12.4536 and 22.6655 and 22.9205 and 23.0055 and 26.2172 and 30.5646 and 12.7847
- Response, Fig_S11b dose-response (DRD2 (D2 long receptor) [4]; Log[Drug] -12): -5.1267 and 0.6872 and -14.1523 and 6.559 and 2.691 and 2.479 and -11.9066 and 21.591 and -2.8216
